Twelve compounds from PubChem BioAssay (NCI) can be followed below.

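In this assay, cells in 96-well plates receive the compound at five concentrations for 48 hours. Endpoints are linearly interpolated between the surrounding concentrations. TGI denotes the concentration required for complete inhibition of growth.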 A value given as a limit tells only on which side of the number the result lay.

Test systems include 786-0 renal; T-47D breast; SK-MEL-2 melanoma; A549 NSCLC; NCI-H460 lung; SNB-75 CNS; A498 renal; HCC-2998 colon; BT-549 breast; HT29 colon; RXF 393 renal.
Experiment in all cases: DTP human tumour cell line panel, 48 h

In the case of `Cc1cccc(NC(=S)N/N=C(/c2ccccc2)c2ccccn2)c1`, the TGI with 786-0 renal is 14.6 µM; in the assay on T-47D breast, 19.6 µM; in the assay on SK-MEL-2 melanoma, 14.5 µM; in the assay with A549 NSCLC it was 14.3 µM; in the assay with NCI-H460 lung, 8.91 µM; with SNB-75 CNS, 22.1 µM. Moreover, the TGI came to 13.7 µM with A498 renal; 19.7 µM in the assay with HCC-2998 colon; 17 µM with BT-549 breast; 17.4 µM in the assay on HT29 colon; 13.2 µM in the assay with RXF 393 renal.
Regarding `CCN(CC)C1=Nc2ccccc2-n2c(C)cnc2C1`, the TGI in the assay on 786-0 renal, in the assay with T-47D breast, in the assay on SK-MEL-2 melanoma, with A549 NSCLC, in the assay with NCI-H460 lung and in the assay with SNB-75 CNS was greater than 100 µM each time. Moreover, the TGI in the assay with A498 renal, in the assay with HCC-2998 colon, with BT-549 breast, in the assay on HT29 colon and with RXF 393 renal was greater than 100 µM each time.
With `CC(C)=CCC[C@H](C)[C@H]1CC[C@@H](C)c2cc(O)c(C)cc21`, the TGI in the assay with 786-0 renal is 33.3 µM; in the assay on T-47D breast it was 36.8 µM; in the assay on SK-MEL-2 melanoma it was 32.4 µM; in the assay on A549 NSCLC it was 32.6 µM; in the assay on NCI-H460 lung, 33.7 µM; with SNB-75 CNS it was 38.6 µM. Besides, the TGI was 30.7 µM in the assay on A498 renal; 33.7 µM with HCC-2998 colon; 32.7 µM in the assay with BT-549 breast; 37.2 µM in the assay with HT29 colon; 42.2 µM with RXF 393 renal.
Take `CC1(C)OC(=S)N(c2ccccc2)C12C=Cc1cc3ccccc3cc1O2` (configuration not stated): the TGI with 786-0 renal, in the assay on T-47D breast, in the assay with SK-MEL-2 melanoma, in the assay with A549 NSCLC, in the assay with NCI-H460 lung and in the assay on SNB-75 CNS was greater than 100 µM in each case. Also, the TGI in the assay with A498 renal, with HCC-2998 colon, in the assay on BT-549 breast, in the assay with HT29 colon and in the assay on RXF 393 renal was greater than 100 µM each time.
On to `Cn1cnc([N+](=O)[O-])c1Sc1nc(N)nc2c1ncn2Cc1ccccc1`, for which the TGI in the assay with 786-0 renal was 68.2 µM; with T-47D breast, 40.9 µM; in the assay on SK-MEL-2 melanoma, 40.4 µM; in the assay with A549 NSCLC it was 84.8 µM; in the assay on NCI-H460 lung, 34.7 µM; with SNB-75 CNS, greater than 100 µM. For the same compound, the TGI in the assay with A498 renal was found to be 68.3 µM; with HCC-2998 colon, 29.4 µM; in the assay with BT-549 breast, 57.2 µM; in the assay on HT29 colon, 67.8 µM; in the assay on RXF 393 renal, 43.7 µM.
For `CC1Cc2cc(O)ccc2C2[C@@H]1C1CC[C@H](O)[C@@]1(C)C[C@@H]2O[N+](=O)[O-]` (some centres not stated), the TGI in the assay with 786-0 renal was 65.3 µM; in the assay on T-47D breast it was greater than 84.3 µM; in the assay with SK-MEL-2 melanoma, 55.3 µM; in the assay with A549 NSCLC, 79.7 µM; with NCI-H460 lung, greater than 95.7 µM; in the assay on SNB-75 CNS, greater than 100 µM. Also, the TGI turned out to be 78.7 µM in the assay with A498 renal; 22 µM in the assay with HCC-2998 colon; 48.9 µM with BT-549 breast; 31.1 µM in the assay on HT29 colon; 29.3 µM in the assay with RXF 393 renal.
On to `CC(C)(C)NC1C2CCC(C)(C1O)C2(C)C` (configuration not stated), for which the TGI was greater than 100 µM in the assay with 786-0 renal; greater than 100 µM with T-47D breast; greater than 100 µM in the assay on SK-MEL-2 melanoma; greater than 100 µM in the assay with A549 NSCLC; greater than 100 µM with NCI-H460 lung; 26.2 µM in the assay with SNB-75 CNS. For the same compound, the TGI is 5.19 µM in the assay with A498 renal; greater than 100 µM with HCC-2998 colon; greater than 100 µM with BT-549 breast; greater than 100 µM in the assay on HT29 colon; greater than 100 µM in the assay with RXF 393 renal.
Take `COC(Cc1ccccc1)NC(C)=O` (configuration not stated): the TGI in the assay on 786-0 renal, in the assay with T-47D breast, in the assay with SK-MEL-2 melanoma, in the assay on A549 NSCLC, in the assay on NCI-H460 lung and in the assay with SNB-75 CNS was greater than 100 µM each time. For the same compound, the TGI in the assay on A498 renal, in the assay with HCC-2998 colon, in the assay with BT-549 breast, in the assay with HT29 colon and with RXF 393 renal was greater than 100 µM each time.
As for `Cc1cc(-c2nc3cc(F)c(F)cc3s2)ccc1N`, the TGI was greater than 100 µM in the assay with 786-0 renal; greater than 100 µM with T-47D breast; greater than 100 µM in the assay with SK-MEL-2 melanoma; greater than 100 µM with A549 NSCLC; greater than 100 µM in the assay with NCI-H460 lung; greater than 92.9 µM in the assay with SNB-75 CNS. The TGI with A498 renal, in the assay on HCC-2998 colon, with BT-549 breast, with HT29 colon and in the assay with RXF 393 renal was greater than 100 µM in each case.
With `N/N=C(\C(=O)Nc1ccc([N+](=O)[O-])cc1)C(C1=Nc2cc([N+](=O)[O-])ccc2NC1)[N+](=O)[O-]` (configuration not stated), the TGI with 786-0 renal, in the assay on T-47D breast, in the assay with SK-MEL-2 melanoma, in the assay with A549 NSCLC, with NCI-H460 lung and in the assay on SNB-75 CNS was greater than 100 µM each time. Further, the TGI in the assay on A498 renal, in the assay on HCC-2998 colon, in the assay with BT-549 breast, in the assay on HT29 colon and in the assay with RXF 393 renal was greater than 100 µM throughout.
`CC1(C)O[C@@H]2[C@@H]3OC(=O)C[C@@H]3[C@@H](COCc3ccccc3)[C@@H]2O1`: the TGI with 786-0 renal, in the assay on T-47D breast, in the assay with SK-MEL-2 melanoma, in the assay with A549 NSCLC, with NCI-H460 lung and with SNB-75 CNS was greater than 100 µM throughout. The TGI with A498 renal, with HCC-2998 colon, with BT-549 breast, in the assay on HT29 colon and in the assay on RXF 393 renal was greater than 100 µM throughout.
Take `CCCCCC(/C=N/N)C(O)(C(F)(F)F)C(F)(F)F` (configuration not stated): the concentration for total growth inhibition (TGI) in the assay with 786-0 renal is greater than 10 µM; in the assay on T-47D breast, greater than 10 µM; with SK-MEL-2 melanoma, greater than 10 µM; in the assay with A549 NSCLC, greater than 10 µM; with NCI-H460 lung, 8.03 µM; with SNB-75 CNS, 9.63 µM. The TGI in the assay on A498 renal is 7.95 µM; with HCC-2998 colon it was greater than 10 µM; in the assay on BT-549 breast, 9.27 µM; in the assay on HT29 colon it was greater than 10 µM; in the assay with RXF 393 renal, greater than 10 µM.

Broadly, the TGI is the concentration giving total growth inhibition. A low value points to greater sensitivity of the cells.
